Here are results for 25 molecules from patent publication US9169252B2 (BRISTOL-MYERS SQUIBB COMPANY, priority 2014, dated 2015).

SMILES strings stand for the structures.

Assay [1] has as its target IRAK4 (Homo sapiens (Human), UniProt Q9NWZ3). The experiment in a line: IRAK4 Inhibition Assay. It counts as biochemical. Particulars: IRAK4 Inhibition Assay; ATP 500 μM; read-out: IRAK4 IC50. A digest of the protocol: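 Mobility-shift readout: fluorescent substrate and phosphoproduct resolved electrophoretically on Caliper LabChip 3000 after EDTA quench (35 mM). Enzyme reaction of IRAK4, substrates and test compound ran 60 min at room temperature.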

For assay [2], the system named is TLR2 induced IL-6 in peripheral blood mononuclear cells (PBMCs). The assay can be described thus: PBMC TLR2 Induced IL-6 Assay. It counts as cell-based, human. As to conditions: Homo sapiens, PBMC, PBMC TLR2 Induced IL-6 Assay, lipoteichoic acid stimulation, IL-6 by ELISA; for EC50: read-out: Cell EC50; for IC50: read-out: Cell IC50. Put shortly:
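Lipoteichoic acid at 10 µg/ml served as TLR2 stimulus for 5 hours, following a 30-minute compound pretreatment at 37° C. Cells were Ficoll-isolated human PBMCs, 250000 cells/well, cultured in RPMI plus 10% heat-inactivated FCS.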
On the technique in general: In an ELISA, binding on a coated surface is turned into a signal by an enzyme label.

Chain of IRAK4 (Q9NWZ3 whole entry, species assumed): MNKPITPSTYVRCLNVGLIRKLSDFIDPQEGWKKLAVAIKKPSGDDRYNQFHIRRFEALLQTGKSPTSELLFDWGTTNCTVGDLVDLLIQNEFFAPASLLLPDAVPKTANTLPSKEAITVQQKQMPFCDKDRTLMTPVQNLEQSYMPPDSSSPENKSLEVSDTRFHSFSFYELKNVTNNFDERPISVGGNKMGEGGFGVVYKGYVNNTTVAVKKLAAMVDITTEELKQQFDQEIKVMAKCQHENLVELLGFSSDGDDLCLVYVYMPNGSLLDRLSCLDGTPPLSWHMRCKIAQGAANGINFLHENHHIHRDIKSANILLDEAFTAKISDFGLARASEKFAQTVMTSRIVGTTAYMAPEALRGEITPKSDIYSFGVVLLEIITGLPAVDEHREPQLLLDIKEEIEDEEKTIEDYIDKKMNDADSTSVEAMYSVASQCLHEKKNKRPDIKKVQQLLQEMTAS

The term IC50 denotes the concentration that inhibits the measured activity by half. As usually defined, the EC50 is the concentration needed to bring the measured effect to its halfway point. For the molecule `CC(C)(O)[C@H](F)CNC(=O)c1cnc(-n2ccc3cc(C#N)cnc32)cc1Nc1cccc(C(N)=O)c1` [Example 56, (R)-4-((3-carbamoylphenyl)amino)-6-(5-cyano-1H-pyrrolo[2,3-b]pyridin-1-yl)-N-(2-fluoro-3-hydroxy-3-methylbutyl)nicotinamide], in assay [1], the IC50 amounted to 2.5 nM. Besides, the EC50 in assay [2] was 102 nM.

In the case of `CC(C)(O)[C@H](F)CNC(=O)c1cnc(-n2ccc3cc(C#N)cnc32)cc1Nc1cccc(NS(C)(=O)=O)c1` [Example 57, (R)-6-(5-cyano-1H-pyrrolo[2,3-b]pyridin-1-yl)-N-(2-fluoro-3-hydroxy-3-methylbutyl)-4-((3-(methylsulfonamido)phenyl)amino) nicotinamide], in assay [1], the IC50 turned out to be 1.5 nM. The EC50 in assay [2] is 173 nM.

Regarding `CC(C)Nc1cc(-n2ccc3cc(C#N)cnc32)ncc1C(=O)NCCc1ccc(S(N)(=O)=O)cc1` [Example 58, 6-(5-cyano-1H-pyrrolo[2,3-b]pyridin-1-yl)-4-(isopropylamino)-N-(4-sulfamoylphenethyl)nicotinamide], in assay [1], the IC50 worked out at 2.7 nM. Further, in assay [2], the EC50 came out at 49 nM.

As to `CC(C)(O)c1cccc(Nc2cc(-n3ccc4cc(C#N)cnc43)ncc2C(=O)NC[C@@H](F)C(C)(C)O)c1` [Example 59, (R)-6-(5-cyano-1H-pyrrolo[2,3-b]pyridin-1-yl)-N-(2-fluoro-3-hydroxy-3-methylbutyl)-4-((3-(2-hydroxypropan-2-yl)phenyl)amino) nicotinamide], the IC50 in assay [1] came to 1.6 nM. Besides, the EC50 in assay [2] stood at 153 nM.

On to `CC(C)(O)[C@H](F)CNC(=O)c1cnc(-n2ccc3cc(C#N)cnc32)cc1Nc1ccc(C(N)=O)cc1` [Example 60, (R)-4-((4-carbamoylphenyl)amino)-6-(5-cyano-1H-pyrrolo[2,3-b]pyridin-1-yl)-N-(2-fluoro-3-hydroxy-3-methylbutyl)nicotinamide], for which, in assay [1], the IC50 turned out to be 1.8 nM. In addition, the EC50 in assay [2] was 24 nM.

As to `CC(C)(O)[C@H](F)CNC(=O)c1cnc(-n2ccc3cc(C#N)cnc32)cc1N[C@H]1CC[C@@](C)(O)CC1` [Example 61, 6-(5-cyano-1H-pyrrolo[2,3-b]pyridin-1-yl)-N—((R)-2-fluoro-3-hydroxy-3-methylbutyl)-4-(((1s,4S)-4-hydroxy-4-methylcyclohexyl)amino)nicotinamide], the IC50 in assay [1] amounted to 1.3 nM. Besides, the EC50 in assay [2] was determined as 34 nM.

As to `CC(C)(O)[C@H](F)CNC(=O)c1cnc(-n2ccc3cc(C#N)cnc32)cc1N[C@H]1CC[C@](C)(O)CC1` [Example 62, 6-(5-cyano-1H-pyrrolo[2,3-b]pyridin-1-yl)-N—((R)-2-fluoro-3-hydroxy-3-methylbutyl)-4-(((trans)-4-hydroxy-4-methylcyclohexyl)amino)nicotinamide], in assay [1], the IC50 stood at 3.6 nM. Also, in assay [2], the EC50 came to 143 nM.

Regarding `CC(C)Nc1cc(-n2ccc3cc(C#N)cnc32)ncc1C(=O)NCCNS(C)(=O)=O` [Example 63, 6-(5-cyano-1H-pyrrolo[2,3-b]pyridin-1-yl)-4-(isopropylamino)-N-(2-(methylsulfonamido)ethyl)nicotinamide], in assay [1], the IC50 is 4.1 nM. Further, the EC50 in assay [2] was 12 nM.

`CC(C)(O)[C@H](F)CNC(=O)c1cnc(-n2ccc3cc(C#N)cnc32)cc1Nc1ccc2ncsc2c1` [Example 64, (R)-4-(benzo[d]thiazol-6-ylamino)-6-(5-cyano-1H-pyrrolo[2,3-b]pyridin-1-yl)-N-(2-fluoro-3-hydroxy-3-methylbutyl)nicotinamide]: the IC50 in assay [1] was 1.7 nM. Further, the EC50 in assay [2] amounted to 93 nM.

As for `CC(C)(O)[C@H](F)CNC(=O)c1cnc(-n2ccc3cc(C#N)cnc32)cc1NCC1(F)CCC1` [Example 65, (R)-6-(5-cyano-1H-pyrrolo[2,3-b]pyridin-1-yl)-N-(2-fluoro-3-hydroxy-3-methylbutyl)-4-(((1-fluorocyclobutyl)methyl)amino) nicotinamide], in assay [1], the IC50 is 1.5 nM. Besides, the EC50 in assay [2] is 100 nM.

`CC(C)(O)[C@H](F)CNC(=O)c1cnc(-n2ccc3cc(C#N)cnc32)cc1Nc1cccc(C#N)c1` [Example 66, (R)-6-(5-cyano-1H-pyrrolo[2,3-b]pyridin-1-yl)-4-((3-cyanophenyl)amino)-N-(2-fluoro-3-hydroxy-3-methylbutyl)nicotinamide]: the IC50 in assay [1] was found to be 1.7 nM. Also, in assay [2], the EC50 stood at 201 nM.

In the case of `CC(C)(O)[C@H](F)CNC(=O)c1cnc(-n2ccc3cc(C#N)cnc32)cc1Nc1ccc(-n2cccn2)cc1` [Example 67], the IC50 in assay [1] stood at 1.7 nM. Besides, the half-maximal effective concentration (EC50) in assay [2] is 102 nM.

Turning to `CC(C)(O)[C@H](F)CNC(=O)c1cnc(-n2ccc3cc(C#N)cnc32)cc1Nc1ccc(-n2cncn2)cc1` [Example 68], the IC50 in assay [1] worked out at 2.1 nM. In assay [2], the EC50 came out at 30 nM.

In the case of `Cn1nnnc1-c1ccc(Nc2cc(-n3ccc4cc(C#N)cnc43)ncc2C(=O)NC[C@@H](F)C(C)(C)O)cc1` [Example 69, (R)-6-(5-cyano-1H-pyrrolo[2,3-b]pyridin-1-yl)-N-(2-fluoro-3-hydroxy-3-methylbutyl)-4-((4-(1-methyl-1H-tetrazol-5-yl)phenyl)amino)nicotinamide], in assay [1], the IC50 is 1.3 nM. Moreover, in assay [2], the EC50 came out at 50 nM.

Consider `CC(C)Nc1cc(-n2ccc3cc(C#N)cnc32)ncc1C(=O)NCC(=O)NC1CCS(=O)(=O)C1` (centres unmarked) [Example 70, 6-(5-cyano-1H-pyrrolo[2,3-b]pyridin-1-yl)-N-(2-((1,1-dioxidotetrahydrothiophen-3-yl)amino)-2-oxoethyl)-4-(isopropylamino)nicotinamide], for which, in assay [1], the IC50 came to 2.8 nM. The EC50 in assay [2] is 210 nM.

As for `CC(C)(O)[C@H](F)CNC(=O)c1cnc(-n2ccc3cc(C#N)cnc32)cc1Nc1cccc(CO)c1` [Example 71, (R)-6-(5-cyano-1H-pyrrolo[2,3-b]pyridin-1-yl)-N-(2-fluoro-3-hydroxy-3-methylbutyl)-4-((3-(hydroxymethyl)phenyl)amino)nicotinamide], the IC50 in assay [1] came to 1.5 nM. Moreover, the EC50 in assay [2] is 28 nM.

As for `CC(F)[C@H](C)Nc1cc(-n2ccc3cc(C#N)cnc32)ncc1C(=O)NC[C@@H](F)C(C)(C)O` (stereo partly drawn) [Example 72, 6-(5-cyano-1H-pyrrolo[2,3-b]pyridin-1-yl)-N—((R)-2-fluoro-3-hydroxy-3-methylbutyl)-4-(((2S)-3-fluorobutan-2-yl)amino) nicotinamide], the IC50 in assay [1] was 2 nM. Besides, the EC50 in assay [2] worked out at 72 nM.

For the molecule `CC(C)Nc1cc(-n2ccc3cc(C#N)cnc32)ncc1C(=O)NC1CCc2nc(N)sc2C1` (centres unmarked) [Example 73, N-(2-amino-4,5,6,7-tetrahydrobenzo[d]thiazol-6-yl)-6-(5-cyano-1H-pyrrolo[2,3-b]pyridin-1-yl)-4-(isopropylamino)nicotinamide], the IC50 in assay [1] worked out at 13.1 nM. In addition, the EC50 in assay [2] stood at 189 nM.

With `CC(C)Nc1cc(-n2ccc3cccnc32)ncc1C(=O)NC[C@@H](F)C(C)(C)O` [Example 74, (R)—N-(2-fluoro-3-hydroxy-3-methylbutyl)-4-(isopropylamino)-6-(1H-pyrrolo[2,3-b]pyridin-1-yl)nicotinamide], the values for the IC50 in assay [1] and in assay [2] were 4.3 nM and 531 nM, respectively.

Turning to `CC(C)Nc1cc(-n2ccc3cc(C#N)cnc32)ncc1C(=O)NC[C@@H](F)C(C)(C)O` [Example 75, (R)-6-(5-cyano-1H-pyrrolo[2,3-b]pyridin-1-yl)-N-(2-fluoro-3-hydroxy-3-methylbutyl)-4-(isopropylamino)nicotinamide], the IC50 in assay [1] stood at 7.6 nM; in assay [2], 22 nM.

On to `CC(C)(O)CNc1cc(-n2ccc3cc(C#N)cnc32)ncc1C(=O)NC[C@@H](F)C(C)(C)O` [Example 77, (R)-6-(5-cyano-1H-pyrrolo[2,3-b]pyridin-1-yl)-N-(2-fluoro-3-hydroxy-3-methylbutyl)-4-((2-hydroxy-2-methylpropyl)amino)nicotinamide], for which the IC50 in assay [1] was 2.6 nM; in assay [2] it was 161 nM.

As to `CC(CF)Nc1cc(-n2ccc3cc(C#N)cnc32)ncc1C(=O)NC[C@@H](F)C(C)(C)O` (stereo partly drawn) [Example 78, 6-(5-cyano-1H-pyrrolo[2,3-b]pyridin-1-yl)-N—((R)-2-fluoro-3-hydroxy-3-methylbutyl)-4-((1-fluoropropan-2-yl)amino)nicotinamide], the values for the concentration for half-maximal inhibition (IC50) in assay [1] and in assay [2] were 2.9 nM and 63 nM, respectively.

Take `CNC(=O)[C@H]1CC[C@H](NC(=O)c2cnc(-n3ccc4cc(C#N)ccc43)cc2NC(C)C)CC1` [Example 79, 6-(5-Cyano-1H-indol-1-yl)-4-(isopropylamino)-N-((trans)-4-(methylcarbamoyl)cyclohexyl)nicotinamide]: the IC50 in assay [1] was determined as 11.6 nM. For the same molecule, in assay [2], the EC50 is 436 nM and the IC50 was found to be 436 nM.

Consider `CNC(=O)[C@H]1CC[C@H](NC(=O)c2cnc(-n3ccc4cc(C#N)cnc43)cc2NC(C)C)CC1` [Example 80, 6-(5-cyano-1H-pyrrolo[2,3-b]pyridin-1-yl)-4-(isopropylamino)-N-((trans)-4-(methylcarbamoyl)cyclohexyl)nicotinamide], for which the IC50 in assay [1] came to 1.1 nM. In addition, in assay [2], the EC50 was found to be 167 nM and the IC50 is 79 nM.

Regarding `CNC(=O)[C@H]1CC[C@H](NC(=O)c2cnc(-n3ccc4cncnc43)cc2NC(C)C)CC1` [Example 81, 4-(isopropylamino)-N-((trans)-4-(methylcarbamoyl)cyclohexyl)-6-(7H-pyrrolo[2,3-d]pyrimidin-7-yl)nicotinamide], in assay [1], the IC50 came out at 14.2 nM. For the same molecule, in assay [2], the EC50 amounted to 121 nM and the IC50 amounted to 565 nM.
